Assay results from patent EP1159261B1, “ANTIZYME MODULATORS AND THEIR USE” (ORIDIGM CORPORATION, priority 1999, dated 2000).
“Also recorded” adds a separate entry of the source. Like-named read-outs stand apart in the source and are kept apart here.

Assays:
[1] = tested on: polyamine transporter; assay: polyamine transport assay (^3H-spermidine uptake into cells); format: cell-based; settings: result in words
Description: Cells in log growth are pre-incubated with an agmatine analog followed by addition of ^3H-spermidine. […] The cells were then washed three times with cold PBS, lysed with 0.1% SDS, and the amount of polyamine incorporation into the cells was determined by scintillation counting of the cell lysates. To determine a Ki, four substrate concentrations and five inhibitor concentrations and a control were tested. The Ki was determined by a non-linear fit to the Michaelis-Menten equation.
(§1) For example, compounds ORI 1041 and ORI 1093 were evaluated as polyamine transport inhibitors and for growth inhibition in a cell based (MDA-MB-231 breast cancer cell line) assay with and without DFMO.

[2] = tested on: breast carcinoma cell line, MDA-MB-231; assay: cell growth inhibition, seven days, MTS/PMS dye assay; format: cell-based; settings: for IC50: Homo sapiens
Description: The IC50 values in the above Table as well as Tables 1B and 1C below were determined with the breast carcinoma cell line, MDA-MB-231.
Cells were plated in 96-well plates such that they would be in log growth for the duration of the assay. The day after plating, drugs were added to the cells and they were grown for seven days. Cell growth was measured by MTS/PMS dye assay (Promega). The assay was done in the presence of 1 mM aminoguanidine to inhibit amine oxidases from the serum in the culture media and 1 µM spermidine to insure that any growth inhibition was not the result of depletion of external polyamines from the media. The assay was also performed over seven days because this allows for the greatest dynamic range in cell growth due to the mechanism of concomitant inhibition of polyamine biosynthesis and transport. Cells need to divide several times before the intracellular level of polyamines begin to decrease to growth inhibitory levels.
as §1

[3] = tested on: human antizyme sequence; assay: in vitro antizyme dual luciferase frameshifting assay (in vitro translation in reticulocyte lysate); format: biochemical; settings: for In vitro antizyme induction / antizyme induction: result in words; for antizyme induction: sentence does not say in vitro or in vivo, context is the in vitro assay
From the text: As one skilled in the art would appreciate, there are a multitude of means to test the agmatine and polyamine analogs of the invention for the ability to induce a frameshift. […] This assay allows one to measure the efficiency of translational frameshifting on the human antizyme sequence. Briefly, two variations of the human antizyme sequence were cloned between the renilla (5') and firefly (3') luciferase reporter genes in pRL-SV40 (Promega) plasmids. One plasmid contained the wild type antizyme sequence which requires a +1 frameshift for complete translation, the other plasmid contained modified, in-frame antizyme (control) sequences. These plasmids are utilized to transiently or stably transfect human cell lines with either the wild type or in-frame antizyme sequence-containing plasmids. Renilla and firefly luciferase activity in each assay (with cells containing one of the two plasmids) is measured to account for polymerase fall-off or translational efficiency in the presence or absence of the agmatine and polyamine analogs of the invention. That ratio is used to normalize the firefly luciferase activity seen in the wild type sequence, compared to the in-frame control sequence.
(§2) In vitro assays of the effect of agmatine and polyamine analogs on antizyme frameshifting were performed as follows. Linearized plasmids containing the wild type and in-frame antizyme sequence were transcribed in vitro, followed by in vitro translation in reticulocyte lysate, with and without agmatine and polyamine analogs. Luminescence was measured using the Dual-Luciferase™ reporter assay (Promega).
This assay allows one to measure the efficiency of translational frameshifting on the human antizyme sequence. Briefly, two variations of the human antizyme sequence were cloned between the renilla (5') and firefly (3') luciferase reporter genes in pRL-SV40 (Promega) plasmids. One plasmid contained the wild type antizyme sequence which requires a +1 frameshift for complete translation, the other plasmid contained modified, in-frame antizyme (control) sequences. These plasmids are utilized to transiently or stably transfect human cell lines with either the wild type or in-frame antizyme sequence-containing plasmids. Renilla and firefly luciferase activity in each assay (with cells containing one of the two plasmids) is measured to account for polymerase fall-off or translational efficiency in the presence or absence of the analogs of the invention. That ratio is used to normalize the firefly luciferase activity seen in the wild type sequence, compared to the in-frame control sequence.
as §2, with “agmatine” for “agmatine and polyamine”, “agmatine analogs .” for “agmatine and polyamine analogs.”

[4] = tested on: human antizyme sequence; assay: in vivo (cellular) antizyme dual luciferase frameshifting assay in transfected cell lines; format: cell-based; settings: for In vivo (cellular) antizyme induction: result in words
Description: As one skilled in the art would appreciate, there are a multitude of means to test the agmatine and polyamine analogs of the invention for the ability to induce a frameshift. For example, Satriano et al. (J. Biol. Chem., 273:15313-15316 (1998)) and the references cited therein utilized an in vitro reticulocyte system. The agmatine and polyamine analogs of the invention were tested in vitro (such as by test tube) and in vivo (such as by cell culture) using the antizyme dual luciferase frameshifting assay as described by Grentzmann, G., et al in RNA 4:479-486, 1998. This assay allows one to measure the efficiency of translational frameshifting on the human antizyme sequence. Briefly, two variations of the human antizyme sequence were cloned between the renilla (5') and firefly (3') luciferase reporter genes in pRL-SV40 (Promega) plasmids. One plasmid contained the wild type antizyme sequence which requires a +1 frameshift for complete translation, the other plasmid contained modified, in-frame antizyme (control) sequences. These plasmids are utilized to transiently or stably transfect human cell lines with either the wild type or in-frame antizyme sequence-containing plasmids. Renilla and firefly luciferase activity in each assay (with cells containing one of the two plasmids) is measured to account for polymerase fall-off or translational efficiency in the presence or absence of the agmatine and polyamine analogs of the invention. That ratio is used to normalize the firefly luciferase activity seen in the wild type sequence, compared to the in-frame control sequence. […] Agmatine and polyamine analogs of the invention were tested in vitro (such as by test tube) and in vivo (such as with cell lines) using the antizyme dual luciferase frameshifting assay as described by Grentzmann, G., et al in RNA 4:479-486, 1998. This assay allows one to measure the efficiency of translational frameshifting on the human antizyme sequence. Briefly, two variations of the human antizyme sequence were cloned between the renilla (5') and firefly (3') luciferase reporter genes in pRL-SV40 (Promega) plasmids. One plasmid contained the wild type antizyme sequence which requires a +1 frameshift for complete translation, the other plasmid contained modified, in-frame antizyme (control) sequences. These plasmids are utilized to transiently or stably transfect human cell lines with either the wild type or in-frame antizyme sequence-containing plasmids. Renilla and firefly luciferase activity in each assay (with cells containing one of the two plasmids) is measured to account for polymerase fall-off or translational efficiency in the presence or absence of the analogs of the invention. That ratio is used to normalize the firefly luciferase activity seen in the wild type sequence, compared to the in-frame control sequence.

[5] = MDA-MB-231, with DFMO, unit inferred, read-out: Cell Growth IC50+DFMO
[6] = MDA-MB-231, without DFMO, unit printed in b172 only, read-out: Cell Growth IC50

## NCCCNCCCCNCCCNS(=O)(=O)c1ccc2oc3ccccc3c2c1 [Analog 1041]
[1]
  polyamine transport inhibition: fairly good transport inhibitor
[2]; [5]
  IC50: 53 µM
[2]; [6]
  IC50: 50 µM
[2]; MDA-MB-231, Tables 1A and 1B, unit inferred, read-out: IC50
  IC50: 12 µM
[2]; MDA-MB-231
  R value (R= IC50/ IC50+DFMO): ~1
[3]; antizyme induction at 0.06 mM
  In vitro: 15% at 0.06 mM
[3]
  In vitro antizyme induction: demonstrated in vitro induction activity; also recorded: dramatic increase in in vitro induction activity in comparison with spermidine

## CC(=O)NCCCNCCCCNCCCN [Analog 1110, N^1-acetylspermine]
[4]; antizyme induction @ 10 mM
  In vivo (cellular): 30% @ 10 mM
[4]
  In vivo (cellular) antizyme induction: demonstrated antizyme inducing activity
[4]; listed as ORI 1110
  In vivo (cellular) antizyme induction: diminished ability to induce the expression of active antizyme in comparison with spermidine

## NCCCCNCCCCNCCCCN [Analog 1190]
[4]
  In vivo (cellular) antizyme induction: negative; also recorded: no ability to induce antizyme

## NCCCNCc1ccc(CNCCCN)cc1 [Analog 1283]
[4]
  In vivo (cellular) antizyme induction: positive; also recorded: increase in induction activity

## N=C(N)NOCC[C@H](N)C(=O)O [Analog 1284, L-canavanine]
[3]
  In vitro antizyme induction: no activity

## NCCCON [Analog 1291, AOPA]
[3]
  antizyme induction: no induction activity is observed

## NCCCCON [Analog 1292, AOBA]
[3]
  antizyme induction: no induction activity is observed

## O=S(=O)(NCCCNCCCCNCCCNS(=O)(=O)c1ccc2oc3ccccc3c2c1)c1ccc2oc3ccccc3c2c1 [Analog 1293]
[1]
  polyamine transport inhibition: fairly poor transport inhibitor
[2]; [5]
  IC50: 2 µM
[2]; [6]
  IC50: 2 µM
[2]; MDA-MB-231
  R value (R= IC50/ IC50+DFMO): ~1

## CC(N)CCC(C)N (stereo not shown) [Analog 1351, 2,5-diaminohexane]
[3]
  In vitro antizyme induction: induces antizyme

## NCCCC[C@H](N)C(=O)O [L-lysine, reference compound]
[3]
  antizyme induction: does not induce antizyme activation

## NCCCCNCCCN [Spermidine, reference compound]
[4]; antizyme induction @ 16 mM
  In vivo (cellular): 35% @ 16 mM
[3]; antizyme induction @ 1 mM
  In vitro: 22% @ 1 mM

## NCCCCCN [cadaverine, reference compound]
[4]
  In vivo (cellular) antizyme induction: only slightly less active than putrescine; also recorded: significant in vivo activity
[3]
  In vitro antizyme induction: no induction was observed; also recorded: no in vitro activity

## NCCCNCCCCNCCCN [spermine, reference compound]
[4]
  In vivo (cellular) antizyme induction: induced antizyme
[3]
  In vitro antizyme induction: induced antizyme

## L-Lys-spermine conjugate [Analog 1202]
[4]
  In vivo (cellular) antizyme induction: positive; also recorded: diminished ability to induce antizyme
[3]
  In vitro antizyme induction: diminished ability to induce antizyme

## L-Val-spermine [Analog 1157]
[3]
  In vitro antizyme induction: retained the ability to induce antizyme

## α-dimethylspermine [Analog 1383]
[4]
  In vivo (cellular) antizyme induction: positive; also recorded: to the same extent as spermine
